A short description of assay [1]: A549 cell cytotoxicity, dose response, cytotoxicity control, plate reader, cherry-pick, antagonist series (AID 743412). Type of assay: functional, cell-based.
For a further assay, the target named is T1, Protein RecA (Mycobacterium tuberculosis, UniProt P9WHJ3).
T1 sequence (P9WHJ3 whole entry): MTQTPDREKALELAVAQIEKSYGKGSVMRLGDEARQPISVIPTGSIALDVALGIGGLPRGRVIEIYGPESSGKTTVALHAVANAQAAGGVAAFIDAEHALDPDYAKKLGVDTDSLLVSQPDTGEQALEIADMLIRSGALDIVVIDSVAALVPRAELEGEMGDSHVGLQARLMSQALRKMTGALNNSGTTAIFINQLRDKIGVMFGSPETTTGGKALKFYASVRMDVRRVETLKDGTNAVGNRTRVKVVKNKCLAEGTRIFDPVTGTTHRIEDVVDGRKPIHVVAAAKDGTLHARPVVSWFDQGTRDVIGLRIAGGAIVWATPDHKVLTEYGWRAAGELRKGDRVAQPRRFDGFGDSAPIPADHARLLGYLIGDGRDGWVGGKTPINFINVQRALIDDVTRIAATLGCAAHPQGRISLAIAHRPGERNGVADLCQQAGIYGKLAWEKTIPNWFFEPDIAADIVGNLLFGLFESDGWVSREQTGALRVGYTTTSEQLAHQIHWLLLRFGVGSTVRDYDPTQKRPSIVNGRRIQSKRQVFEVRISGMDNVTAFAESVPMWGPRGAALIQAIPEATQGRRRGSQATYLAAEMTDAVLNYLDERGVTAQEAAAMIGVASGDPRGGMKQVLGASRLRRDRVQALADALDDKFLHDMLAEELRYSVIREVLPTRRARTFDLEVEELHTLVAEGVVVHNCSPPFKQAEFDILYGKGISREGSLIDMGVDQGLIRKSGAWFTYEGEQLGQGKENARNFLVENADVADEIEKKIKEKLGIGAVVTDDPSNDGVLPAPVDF
The assay is described as follows: Fluorescence Cell-Free Homogeneous Dose Retest to Identify Inhibitors of RecA-Intein Splicing Activity. [Related pubchem assays (depositor defined):AID2097, AID2223, AID489010, AID492950]. Type of assay: functional.

The target in assay [2] is T2, Ubiquitin-conjugating enzyme E2 N (Homo sapiens, UniProt P61088).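 Note: Dose-response confirmation in a TR-FRET assay detecting UBC13-driven polyubiquitin chain formation, inhibition measured.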
T2 sequence (P61088 whole entry): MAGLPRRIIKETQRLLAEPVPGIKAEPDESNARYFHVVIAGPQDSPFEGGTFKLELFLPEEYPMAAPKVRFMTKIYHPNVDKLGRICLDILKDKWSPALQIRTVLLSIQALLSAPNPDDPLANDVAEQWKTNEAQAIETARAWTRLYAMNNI
Format: functional.

The nature of assay [3]: LGR2 antagonists, dose response, cell-based, HEK293, CRE-luciferase reporter, cherry pick, set 2 (AID 743343).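 Note: transfected cells were stimulated with diluted bursicon conditioned medium after compound addition.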 Format: functional. (Reporter assays use an easily measured gene product as a stand-in for the process of interest.)

Calls of active or inactive are those of the source.

`Cl.N=c1n(Cc2ccccc2)c2ccccc2n1CC(O)COc1ccc(Cl)cc1Cl` (centres undefined): the concentration at half-maximal activity (AC50) was 6.26 µM (active) in assay [1] and 23.1 µM (active) in assay [3]. Further, the EC50 on Protein RecA was > 380 µM (inconclusive). Moreover, the IC50 in assay [2] is > 20 µM (inactive).

Broadly, the AC50 is the concentration giving half of the maximal activity seen. Broadly, the EC50 is the concentration needed to bring the measured effect to its halfway point. Usually IC50 stands for the concentration at which inhibition is half-maximal.
